Several values for one entry are separate records, joined by “and”; a condition that tells them apart may be missing. Identical values can stand only once. Entries after “also recorded” stand apart in the source; their conditions may differ.
Experiments:
lymphocytes = assay: Absolute lymphocyte count (ALC) in vaccinated MAGNIFY-MS patients; type: in vivo, human
[1] = Incidence rates of infections in the clinical trial program of cladribine tablets
[2] = system: lymphocytes (ALC, CD19+ B, CD4+ T, CD8+ T); assay: Post hoc analysis of ALC, lymphocyte subsets and lymphopenia by age (CLARITY, CLARITY Extension, ORACLE-MS, PREMIERE)
Procedure: Assessments included incidence and severity of Grade ≥3 lymphopenia; severity of Grade ≥3 lymphopenia was defined based on the NCI CTCAE v3.0 toxicity grading system as ALC levels <500 cells/μL. The time to recover from Grade 3 lymphopenia to Grade ≤2 (ALC ≥500 cells/μL) and to Grade ≤1 (ALC ≥800 cells/μL) were also assessed. […] All assessments were performed for each baseline age group (≤50 years and >50 years).

COVID-19 [3] = assay: COVID-19 course in CLARIFY-MS and MAGNIFY-MS patients (case reports); type: in vivo, human
Source text: Disease course is reported for each of the 3 patients with respect to severity of symptoms, confirmatory status of COVID-19, hospitalisation requirement and recovery status.
Further to the overall outcome for each of the 3 patients from the phase IV studies CLARIFY-MS and MAGNIFY-MS, data on file includes some detail regarding extent and nature of symptoms COVID-19 and concomitant diseases and medications (Table 15).
Aside from COVID-19, no other adverse events or relevant concomitant diseases and medications are reported for Patient 3.

COVID-19 [4] = assay: COVID-19 cases in cladribine tablets treated MS patients (Merck KGaA Global Patient Safety Database); type: in vivo, human
Procedure: On this date, there were 46 patients with confirmed or suspected COVID-19 within the safety database. Patient age was available for 35 patients, with a range of 22-67 years. There were 26 females, 12 males, and 8 patients for whom gender was not reported. Cases were defined as confirmed if a confirmatory diagnostic test was reported as positive. If no confirmatory test was performed or reported, then cases were described as suspected. […] Cases were designated as serious if they fulfilled the criteria of hospitalized, considered to be life-threatening, or medically significant. In keeping with usual pharmacovigilance practices, outcome was classified as recovered, recovering, not recovered, fatal, or not reported.

Nc1nc(Cl)nc2c1ncn2[C@H]1C[C@H](O)[C@@H](CO)O1 [cladribine tablets, Cladribine]
absolute lymphocyte levels (lymphocytes; Patient 70056800222010002, month 14, 1 month after vaccination): 700 cells/µL | absolute lymphocyte levels (lymphocytes; Patient 70056800227010005, Month 6): 900 cells/µL | ALC (lymphocytes; Patient Australia VZV-70056800221260001, month 2, 21.0 wk after Zostavax, 11.1 wk after first Mavenclad dose): 960 cells/μL | ALC (lymphocytes; Patient Canada VZV-70056800222530003, Scr, 1.1 wk after Shingrix, 8.6 wk before first Mavenclad dose): 2,100 cells/μL | ALC (lymphocytes; Patient Canada VZV-70056800222530003, month 2, 18.0 wk after Shingrix, 8.3 wk after first Mavenclad dose): 800 cells/μL | ALC (lymphocytes; Patient Canada VZV-70056800222530003, month 12): 1,110 cells/μL | ALC (lymphocytes; Patient Finland VZV-70056800221620004, month 2, 14.3 wk after Zostavax, 7.9 wk after first Mavenclad dose): 670 cells/μL | lymphocytes after first treatment course (lymphocytes; Shingrix case): 800 cells/µL | influenza incidence ([1]; lymphopenia grade 0-2): 2.75 cases per 100 PY | influenza incidence ([1]; lymphopenia grade 3-4): 3.35 /100 PY | Median (range) time to recovery from the first Grade ≥3 lymphopenia to Grade ≤1 ([2]; Age >50): 6.06 (range: 0.2-46.5) months | Median (range) time to recovery from the first Grade ≥3 lymphopenia to Grade ≤2 ([2]; Age >50): 1.54 (range: 0.2-29.9) months | mean (SD) number of episodes of recovery from Grade ≥3 lymphopenia to Grade ≤1 per patient ([2]; Age >50): 1.3 (0.5) | Median (range) time to recovery from the first Grade ≥3 lymphopenia to Grade ≤1 ([2]; Age ≤50): 5.49 (range: 0.2-88.4) months | Median (range) time to recovery from the first Grade ≥3 lymphopenia to Grade ≤2 ([2]; Age ≤50): 1.18 (range: 0.2-22.3) months | mean (SD) number of episodes of recovery from Grade ≥3 lymphopenia to Grade ≤1 per patient ([2]; Age ≤50): 1.2 (0.5) | ALC decrease from baseline ([2]; Week 9, Age >50): 52.4% | CD8+ T lymphocytes decrease from baseline ([2]; Week 9, Age >50): 43.4% | CD19+ B lymphocytes decrease from baseline ([2]; Week 9, Age >50): 93.8% | median (range) ALC at Year 1 nadir ([2]; Week 9, Age >50): 0.9 (0.3-2.5) ×10^9 cells/L | ALC decrease from baseline ([2]; Week 9, Age ≤50): 43.5% | CD19+ B lymphocytes decrease from baseline ([2]; Week 9, Age ≤50): 90.2% | median (range) ALC at Year 1 nadir ([2]; Week 9, Age ≤50): 1.05 (0.2-6.7) ×10^9 cells/L | CD4+ T lymphocytes decrease from baseline ([2]; Week 60, Age ≤50): 66.4% | CD4+ T lymphocytes decrease from baseline ([2]; Week 72, Age >50): 73.7% | CD8+ T lymphocytes decrease from baseline ([2]; Week 72, Age ≤50): 41.8% | incidence of Grade ≥3 lymphopenia ([2]; Weeks 0-96, Age >50 (30/110)): 27.2% | incidence of Grade ≥3 lymphopenia ([2]; Weeks 0-96, Age ≤50 (205/813)): 25.2% | Grade 4 lymphopenia episodes ([2]; Year 1): No Grade 4 lymphopenia episodes | Grade ≥3 lymphopenia, patients ([2]; Year 2, Age >50): 20.0% | Grade ≥3 lymphopenia, patients ([2]; Year 2, Age ≤50): 18.7% | Grade 4 lymphopenia, patients ([2]; Year 2, aged >50 years (1 patient)): 1.0% | Grade 4 lymphopenia, patients ([2]; Year 2, aged ≤50 years (2 patients)): 0.3% | ALC decrease from baseline ([2]; Year 2 nadir, Age >50): 58.2% | ALC decrease from baseline ([2]; Year 2 nadir, Age ≤50): 55.4% | recovery of ALC and lymphocyte subsets (CD19+ B and CD4+ T) to normal levels ([2]; after last dose in treatment year 2): 30-43 weeks | Grade ≥3 lymphopenia, patients ([2]; treatment Year 1, Age >50): 10.0% | Grade ≥3 lymphopenia, patients ([2]; treatment Year 1, Age ≤50): 8.3% | Lymphocyte counts (COVID-19 [3]; BL (baseline), c1-c3 = Patient 1, 2 (CLARIFY-MS), 3 (MAGNIFY-MS)): 1.48 G/L and 2.80 G/L and 2.39 G/L | Lymphocyte counts (COVID-19 [3]; M14 (January 2020), Patient 1): 0.49 G/L | Lymphocyte counts (COVID-19 [3]; Uns v. (17 Mar. 2020), Patient 2): 0.20 G/L | Adverse events (COVID-19 [3]; c1-c3 = Patient 1, 2, 3): Asthmatic bronchitis and Tachycardia and None and Swollen glands and Angina pectoris and Poss. reaction of EBV - | COVID-19 severity (COVID-19 [3]; c1-c3 = Patient 1, 2, 3): SAE, Severe,; also recorded: Mild, not serious (no | most recent lymphocyte count, median (COVID-19 [4]; 9/46 patients, min 0.24, max 1.2): 0.7 G/L | median time to onset of COVID-19 from last dose (COVID-19 [4]; 21/46 patients): 180 days | range of time to onset of COVID-19 from last dose (COVID-19 [4]; 21/46 patients): 3 to 559 days | COVID-19 cases medically significant (COVID-19 [4]; confirmed cases): 1 cases | COVID-19 cases requiring hospitalisation (COVID-19 [4]; confirmed cases): 3 cases | COVID-19 outcome: Not resolved (COVID-19 [4]; confirmed cases): 1 cases | COVID-19 outcome: Recovered (COVID-19 [4]; confirmed cases): 8 cases | COVID-19 outcome: Recovering (COVID-19 [4]; confirmed cases): 2 cases | confirmed COVID-19 cases (COVID-19 [4]; of 46 total cases): 18 cases | suspected COVID-19 cases (COVID-19 [4]; of 46 total cases): 28 cases | patients with confirmed or suspected COVID-19 (COVID-19 [4]; of approximately 19,000 treated, as of 29 June 2020): 46 patients | lymphocyte count between most recent course and onset of COVID-19 (COVID-19 [4]; patient from the Netherlands): 0.87 G/L
